# Measurements from patent US9018208B2, “Heterocycles as potassium channel modulators” (Icagen Inc., priority 2007, dated 2015).
# Where two headings read alike, the source gives them in different places.
# Columns and labels:
# [1] = tested on: electroshock seizure, Male Wistar rats; assay: In vivo rat assay for anti-convulsant activity (rat MES, electroshock seizure); conditions: for Rat MES activity: single dose screening, typically 10 mg/kg, animals protected from hind limb extension; for ED50: Rattus norvegicus, po
# Method: Male Wistar rats were housed 4 per cage on a regular light/dark cycle (lights on 0600-1800) for one week prior to anti-convulsant testing. The apparatus used to induce electroshock seizure was obtained from Walhquist Instrument Co., Salt Lake City, Utah. The shock level was set at 150 mA and the duration at 0.2 seconds. A drop of 1% proparacaine solution was placed in each eye of a rat, the electrodes were placed over the eyes, and the shock was administered. Latency to hind limb extension was measured to the nearest 0.1 second.
# The KCNQ opener was homogenized in either 0.5% carboxymethylcellulose in water or 0.5% methylcellulose in water) and administered orally through a steel 18-gauge rat gavage tube in a volume of 2 mL/kg of body weight. In the single dose screening assay, latency to seizure for the vehicle group and the KCNQ opener group were compared using t-test. Typically a dose of 10 mg/kg of the opener is used. However, openers can be run n a dose-response experiment where doses of 1, 3, 10 and 30 mg/Kg are used.
# In the single dose screening assay, latency to seizure for the vehicle and the 10 mg/kg groups were compared using t-test. Latencies to seizure in the dose response studies were submitted to analysis of variance and all dose groups were compared to vehicle using Dunnett's method (JMP© ver 5.1, SAS). In all cases an effect was considered significant if p≦0.05.
# [2] = tested on: SH-SY5Y M-currents (KCNQ2, KCNQ3 and KCNQ5); assay: SH-SY5Y native cell line FLIPR assay (voltage-sensitive dye DiBAC); assay type: cell-based, mouse neuroblastoma, rat glioma hybrid cell line; conditions: SH-SY5Y native cell line, read-out: SH-SY5Y EC50
# Method in brief: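 Response is peak DiBAC fluorescence change, normalised to the maximum from a positive control agent, sampled every 30 s over 25 min. Before compound addition, SH-SY5Y cells differentiated with PGE1 plus isomethylbutylxanthine were dye-loaded for 1 h in EBSS with […] DiBAC.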
# [3] = tested on: tactile allodynia following L5 nerve ligation, Male Sprague-Dawley rats; assay: In vivo rat assay for neuropathic pain (L5 spinal nerve ligation, Von Frey tactile allodynia); conditions: oral, Von Frey 50% paw withdrawal threshold after L5 ligation
# Excerpt: A neuropathic pain condition is induced in rats using a nerve injury model similar to the method described by Kim and Chung (Kim, S. H. & Chung, J. M. (1992) Pain 50:355-363). Rats (Male Sprague-Dawley, Charles River, Wilmington, Mass.) weighing 200-300 grams were utilized. Food and water was available ad libitum except during testing) are anesthetized with halothane and the L5 spinal nerve is exposed, carefully isolated, and tightly ligated with 4.0 silk suture distal to the dorsal root ganglia. The wounds are sutured and the animals are allowed to recover in individual cages. To test the effect of a KCNQ opener on tactile allodynia following L5 nerve ligation, Von Frey tactile withdrawal thresholds are determined. Test animals are placed in a box separated by walls with a wire mesh floor allowing access to the plantar surface of the paw. […] Failure to lift the hind paw after 4 seconds is scored as a negative response and the next ascending hair is applied. […]
# Baseline measurements of allodynia are performed immediately prior to subject selection and compound administration. […] Additional paw withdrawal thresholds are measured at various time intervals after compound administration. Examples 153 and 19 were evaluated in this assay.
# [4] = Metabolic stability in rats after oral administration (mass spectrometry); assay type: in vivo, rat; conditions: result in words
# Excerpt: Metabolite 14% of parent for compound 65 and metabolite 35% of parent for compound 366 were observed.
# [5] = tested on: carrageenan-induced thermal hyperalgesia, Sprague Dawley rats; assay: In vivo rat model for inflammatory pain (carrageenan, thermal hyperalgesia); conditions: oral, carrageenan paw, thermal escape latency
# Method: Compounds with anti-hyperalgesic activity will increase (or lengthen) the escape latency of the inflamed paw.
# To induce a local inflammation, 50 μL of a 1% solution of λ-carrageenan in sterile water is injected subcutaneously into the plantar surface of the right hind paw of the rat (Sprague Dawley rats, sample size=8 per treatment group). The KCNQ openers typically at doses ranging from 1-100 mg/kg were homogenized in either 0.5% carboxymethylcellulose in water or 0.5% methylcellulose in water and administered orally through a steel 18-gauge rat gavage tube in a volume of 2 mL/kg of body weight 30 minutes prior to carrageenan injection. After carrageenan injection behavioral testing is conducted at the appropriate time following opener or vehicle administration (generally Tmax, the time of maximum plasma levels of the compound being tested). To assess the thermally evoked paw withdrawal response, a commercially available Hargreaves Box was used (UCSD Department of Anesthesiology, San Diego; La Jolla, Calif., stimulus intensity 5.25 amps). Rats were placed on a thin glass surface in individual chambers made of clear plastic. […] The time to withdrawal response is measured in seconds and assigned as the response latency. […]
Molecule,Rat MES activity ([1]; oral),ED50 ([1]; rat MES dose-response) [mg/kg],EC50 ([2]; FLIPR assay (Table 6)) [nM],further results
"CC(C)(C)CC(=O)Nc1nc2ccc(C(F)(F)F)cn2c1CC(C)(C)C [Compound 19, 3,3-dimethyl-N-(3-neopentyl-6-(trifluoromethyl)imidazo[1,2-a]pyridin-2-yl)butanamide]",+++ (+++ 7-8 animals protected),,,"EC50 ([2]; FLIPR assay, Table 1): < 500 nM; ED50 [3]: 10 mg/kg"
"CC(C)(C)CC(=O)Nc1nc2ccc(C(F)(F)F)cn2c1C1CC1 [Compound 65, N-(3-cyclopropyl-6-(trifluoromethyl)imidazo[1,2-a]pyridin-2-yl)-3,3-dimethylbutanamide]",,,,"EC50 ([2]; FLIPR assay, Table 1): 500 to 3000 nM; metabolism in rats [4]: undergo metabolism at the terminal carbon of the t-butyl group"
"CC(C)(C)CC(=O)Nc1nc2ccc(F)cn2c1-c1ccc(OC(F)(F)F)cc1 [Compound 153, N-(6-fluoro-3(4-(trifluoromethoxy)phenyl)imidazo[1,2-a]pyridin-2-yl)-3,3-dimethylbutanamide]",+++ (+++ 7-8 animals protected),0.5,,"ED50 [5]: 0.5 to 1 mg/kg; EC50 ([2]; FLIPR assay, Table 2): < 500 nM; ED50 [3]: 1.9 mg/kg"
"CC(C)(C)CC(=O)Nc1nc2ccc(F)cn2c1-c1cc(C(F)(F)F)ccn1 [Compound 366, N-(6-fluoro-3-(4-(trifluoromethyl)pyridin-2-yl)imidazo[1,2-a]pyridin-2-yl)-3,3-dimethylbutanamide]",,,,EC50 ([2]; FLIPR assay (Table 3)): < 500 nM; metabolism in rats [4]: undergo metabolism at the terminal carbon of the t-butyl group
"CC(C)(C(=O)Nc1nc2ccc(C(F)(F)F)cn2c1C1CCC1)C(F)(F)F [Compound 428, N-(3-cyclobutyl-6-(trifluoromethyl)imidazo[1,2-a]pyridin-2-yl)-3,3,3-trifluoro-2,2-dimethylpropanamide]",+++ (+++ 7-8 animals protected),1.1,< 500,
"CC(C)(C(=O)Nc1nc2ccc(C(F)(F)F)cn2c1C1CC1)C(F)(F)F [Compound 429, N-(3-cyclopropyl-6-(trifluoromethyl)imidazo[1,2-a]pyridin-2-yl)-3,3,3-trifluoro-2,2-dimethylpropanamide]",+++ (+++ 7-8 animals protected),3.4,500 to 3000,
"O=C(Nc1nc2ccc(C(F)(F)F)cn2c1C1CCCC1)c1ccc(F)c(F)c1 [Compound 430, N-(3-cyclopentyl-6-(trifluoromethyl)imidazo[1,2-a]pyridin-2-yl)-3,4-difluorobenzamide]",++ (++ 4-6 animals protected),2.3,500 to 3000,
"CC(C)(CC(=O)Nc1nc2ccc(C(F)(F)F)cn2c1C1CCC1)C(F)(F)F [Compound 431, N-(3-cyclobutyl-6-(trifluoromethyl)imidazo[1,2-a]pyridin-2-yl)-4,4,4-trifluoro-3,3-dimethylbutanamide]",+++ (+++ 7-8 animals protected),5.2,< 500,metabolism in rats [4]: little or no metabolism
"CC(C)(CC(=O)Nc1nc2ccc(F)cn2c1-c1cc(C(F)(F)F)ccn1)C(F)(F)F [Compound 433, 4,4,4-trifluoro-N-(6-fluoro-3-(4-(trifluoromethyl)pyridin-2-yl)imidazo[1,2-a]pyridin-2-yl)-3,3-dimethylbutanamide]",,3.9,500 to 3000,metabolism in rats [4]: little or no metabolism
"O=C(Nc1nc2ccc(C(F)(F)F)nn2c1C1CC1)c1ccc(F)c(F)c1 [Compound 434, N-(3-cyclopropyl-6-(trifluoromethyl)imidazo[1,2-b]pyridazin-2-yl)-3,4-difluorobenzamide]",++ (++ 4-6 animals protected),,500 to 3000,
"CC(C)(C(=O)Nc1nc2ccc(C(F)(F)F)nn2c1C1CC1)C(F)(F)F [Compound 435, N-(3-cyclopropyl-6-(trifluoromethyl)imidazo[1,2-b]pyridazin-2-yl)-3,3,3-trifluoro-2,2-dimethylpropanamide]",+++ (+++ 7-8 animals protected),,500 to 3000,
"CC(C)(C(=O)Nc1nc2ccc(C(F)(F)F)nn2c1C1CCC1)C(F)(F)F [Compound 437, N-(3-cyclobutyl-6-(trifluoromethyl)imidazo[1,2-b]pyridazin-2-yl)-3,3,3-trifluoro-2,2-dimethylpropanamide]",+++ (+++ 7-8 animals protected),,500 to 3000,
"CC(C)(CC(=O)Nc1nc2ccc(C(F)(F)F)nn2c1C1CCC1)C(F)(F)F [Compound 439, N-(3-cyclobutyl-6-(trifluoromethyl)imidazo[1,2-b]pyridazin-2-yl)-4,4,4-trifluoro-3,3-dimethylbutanamide]",+++ (+++ 7-8 animals protected),0.47,< 500,
"CC(C)(CC(=O)Nc1nc2ccc(F)cn2c1C1CCC1)C(F)(F)F [Compound 446, N-(3-cyclobutyl-6-fluoroimidazo[1,2-a]pyridin-2-yl)-4,4,4-trifluoro-3,3-dimethylbutanamide]",+++ (+++ 7-8 animals protected),,< 500,
"N-(3-cyclobutyl-6-(trifluoromethyl)imidazo[1,2-b]pyridazin-2-yl)-4,4,4-trifluoro-3,3-dimethylbutanamide [Compound 438]",+++ (+++ 7-8 animals protected),,< 500,
"N-(3-cyclopropyl-6-(trifluoromethyl)imidazo[1,2-b]pyridazin-2-yl)-4,4,4-trifluoro-3,3-dimethylbutanamide [Compound 436]",,,500 to 3000,"ED50 (mpk) ([1]; rat MES dose-response, oral): 0.7 mpk"
